This passage reports EC50 results from US12440496B2, “Natriuretic peptide receptor a agonists useful for the treatment of cardiometabolic diseases, kidney disease and diabetes” (Merck Sharp & Dohme LLC, priority 2019, dated 2025).

The target in the test is T1, hNPRA (Homo sapiens, UniProt P16066).
T1 construct: expressed in transfected cells
T1 sequence (P16066 33-1061): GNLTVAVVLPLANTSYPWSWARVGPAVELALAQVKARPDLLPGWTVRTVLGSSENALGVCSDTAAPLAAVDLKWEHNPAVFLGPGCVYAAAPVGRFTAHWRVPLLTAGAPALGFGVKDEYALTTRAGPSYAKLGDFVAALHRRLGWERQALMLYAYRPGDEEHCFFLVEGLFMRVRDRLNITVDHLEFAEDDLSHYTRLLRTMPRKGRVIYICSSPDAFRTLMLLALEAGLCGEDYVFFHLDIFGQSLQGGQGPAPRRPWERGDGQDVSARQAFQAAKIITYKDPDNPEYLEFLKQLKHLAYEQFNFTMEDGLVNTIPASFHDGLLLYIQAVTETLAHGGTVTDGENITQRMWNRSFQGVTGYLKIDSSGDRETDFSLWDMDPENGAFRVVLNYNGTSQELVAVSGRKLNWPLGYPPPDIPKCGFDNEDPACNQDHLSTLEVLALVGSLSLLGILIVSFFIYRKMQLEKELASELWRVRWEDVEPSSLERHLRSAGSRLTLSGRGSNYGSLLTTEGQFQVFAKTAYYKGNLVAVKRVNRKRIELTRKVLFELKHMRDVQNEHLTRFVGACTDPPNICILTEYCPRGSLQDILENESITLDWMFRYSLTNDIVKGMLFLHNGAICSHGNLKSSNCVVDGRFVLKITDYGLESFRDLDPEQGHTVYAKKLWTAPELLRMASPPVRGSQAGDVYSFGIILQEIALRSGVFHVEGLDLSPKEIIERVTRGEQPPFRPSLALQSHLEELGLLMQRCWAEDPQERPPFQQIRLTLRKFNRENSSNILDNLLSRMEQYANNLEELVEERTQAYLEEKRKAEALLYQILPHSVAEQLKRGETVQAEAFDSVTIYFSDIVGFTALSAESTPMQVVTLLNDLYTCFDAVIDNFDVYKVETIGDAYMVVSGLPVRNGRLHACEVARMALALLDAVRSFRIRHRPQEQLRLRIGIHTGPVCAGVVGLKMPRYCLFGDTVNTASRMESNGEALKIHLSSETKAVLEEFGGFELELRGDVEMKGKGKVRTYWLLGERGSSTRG
Nature of the test: NPRA Functional Cell Assay (cGMP HTRF, NPRA HEK JumpIn stable cells). It is filed as cell-based. As to conditions: cGMP production, 1 hour at 37° C., 10-point dose response. From the text: NPRA Functional Cell Assay
Assay Buffer components HEPES and Opti-MEM® I Reduced-Serum with Glutamine (no phenol red) were from Gibco/Invitrogen (Thermo Fisher Scientific, Waltham, MA USA). 3-Isobutyl-1-methylxanthine (IBMX) and 4-(3-Butoxy-4-methoxybenzyl) imidazolidin-2-one (RO20) were obtained from Sigma-Aldrich (St. Louis, MO, USA). DPBS (Dulbecco's phosphate-buffered saline) without Ca2+ and Mg2+ was purchased from GE Healthcare Bio-Sciences (Pittsburgh, PA, USA). 384 well white Optiplates were from Perkin Elmer (Atlantic Highlands, NJ, USA). Human ANP (Atrial Natriuretic Peptide) (1-28) was purchased from Sigma-Aldrich (Catalog #A1663) and rat ANP (1-28) from Bachem (Torrance, CA, USA) (Catalog #H2100). Human-BNP (Human-Brain Natriuretic Peptide) (1-32 AA) was purchased from American Peptide Company (Sunnyvale, CA, USA) (product No. 14-1-90). cGMP kits were purchased from Cisbio. The assay ready frozen (ARF) Human/rat/dog NPRA HEK JumpIn Stable frozen cells (low passage number 5-11) were prepared in-house.
Test compounds were titrated in DMSO in a 10-point dose response in a separate step followed by a 100-fold dilution into the reaction. Positive response for each assay was determined using 10 nM rat-ANP peptide (rat cells) or 50 nM h-ANP peptide (human and dog cells).
Cells were thawed, washed with DPBS and resuspended in assay buffer (Opti-MEM+Glutamine, phenol red free media, 10 mM HEPES, 100 uM IBMX and 100 uM RO20) that was warmed to 37° C. Cells were then transferred to microplates via a Microplate Combi dispenser at a density of 1500, 400 and 1200 cells/well for human, rat and dog cells respectively, followed by acoustic transfer (Echo) of compound.
Compounds and cells were incubated at 37° C. with 5% CO2 for 1 hour, after which the cells were lysed and cGMP was captured using a CisBio cGMP HTRF assay kit. The TRF signal was measured with an Envision plate reader (emission set to 615 and 665 nm) after 1 hour incubation at ambient temperature. The TRF signal was converted to [cGMP] through the use of a cGMP calibration curve on each microplate. EC50's were generated from the resulting dose response curves by use of a 4 parameter logistic algorithm.
Assay Buffer components HEPES and Opti-MEM® I Reduced-Serum with Glutamine (no phenol red) were from Gibco/Invitrogen. 3-Isobutyl-1-methylxanthine (IBMX) and 4-(3-Butoxy-4-methoxybenzyl) imidazolidin-2-one (RO20) were obtained from Sigma. DPBS (Dulbecco's phosphate-buffered saline) without Ca2+ and Mg2+ was purchased from GE Healthcare Bio-Sciences (Pittsburgh, PA, USA). 384 well white Optiplates were from Perkin Elmer (Atlantic Highlands, NJ, USA). Human ANP (1-28) was purchased from Sigma (A1663) and rat ANP (1-28) from Bachem (H2100). Human-BNP (1-32 AA) was purchased from American Peptide Company (Sunnyvale, CA, USA) (product No. 14-1-90). cGMP kits were purchased from Cisbio (Bedford, MA, USA). The assay ready frozen (ARF) Human/rat/dog NPRA HEK JumpIn Stable frozen cells (low passage number 5-11) were prepared in-house.
Compounds and cells were incubated at 37° C. with 5% CO2 for 1 hour, after which the cells were lysed and cGMP was captured using a CisBio cGMP HTRF assay kit. The TRF signal was measured with an Envision® plate reader (Perkin Elmer) (emission set to 615 and 665 nm) after 1 hour incubation at ambient temperature. The TRF signal was converted to [cGMP] through the use of a cGMP calibration curve on each microplate. EC50's were generated from the resulting dose response curves by use of a 4 parameter logistic algorithm.
hNPRA EC50 (nM) were determined for the compounds of Example 1 through Example 273 and are reported in the Experimental section of this application.
For orientation: TR-FRET usually uses a lanthanide donor and a delayed reading to cut background.
Usually EC50 stands for the concentration giving half of the maximal effect. A high value points to a less potent agent. Regarding `CC(C)(C)[C@H]1CCc2nc3sc(C(=O)N[C@H](CCN4CCC(F)CC4)c4cccc(NS(C)(=O)=O)c4)cc3cc2C1` (racemic) [Example 14, ammonium; methylsulfonyl-[3-[rac-(1R)-3-(4-fluoro-1-piperidyl)-1-[[rac-(6S)-6-tert-butyl-5,6,7,8-tetrahydrothieno[2,3-b]quinoline-2-carbonyl]amino]propyl]phenyl] azanide], the EC50 was determined as 0.834 µM.

`CC(C)(C)[C@H]1CCc2nc3sc(C(=O)N[C@H](CCNC4(CO)CCC4)c4cccc(NS(C)(=O)=O)c4)cc3cc2C1` (racemic) [Example 15, ammonium; methylsulfonyl-1-[3-[rac-(1R)-3-[[1-(hydroxymethyl)cyclobutyl]amino]-1-[[rac-(6S)-6-tert-butyl-5,6,7,8-tetrahydrothieno[2,3-b]quinoline-2-carbonyl]amino]propyl]phenyl] azanide] gave an EC50 of 0.942 µM.

Compound `CC1(O)CN(CC[C@@H](NC(=O)c2cc3cc4c(nc3s2)CC[C@H](C(C)(C)C)C4)c2cccc(NS(C)(=O)=O)c2)C1` (racemic) [Example 16, ammonium; methylsulfonyl-[3-[rac-(1R)-3-(3-hydroxy-3-methyl-azetidin-1-yl)-1-[[rac-(6S)-6-tert-butyl-5,6,7,8-tetrahydrothieno[2,3-b]quinoline-2-carbonyl]amino]propyl]phenyl] azanide] yielded an EC50 of 1.12 µM.

With `CC(C)(C)[C@H]1CCc2nc3sc(C(=O)N[C@H](CCN4CCC(n5ccnc5)CC4)c4cccc(NS(C)(=O)=O)c4)cc3cc2C1` (racemic) [Example 17, ammonium; methylsulfonyl-[3-[rac-(1R)-3-(4-imidazol-1-y1-1-piperidy1)-1-[[rac-(6S)-6-tert-butyl-5,6,7,8-tetrahydrothieno[2,3-b]quinoline-2-carbonyl]amino]propyl]phenyl]azanide], the EC50 was 1.26 µM.

`CC(C)(C)[C@H]1CCc2nc3sc(C(=O)N[C@H](CCN4CCCC(c5cccnc5)C4)c4cccc(NS(C)(=O)=O)c4)cc3cc2C1` (mixture of isomers) [Example 18, ammonium; methylsulfonyl-[3-[rac-(1R)-3-[3-(3-pyridyl)-1-piperidyl]-1-[rac-(6S)-6-tert-butyl-5,6,7,8-tetrahydrothieno[2,3-b]quinoline-2-carbonyl]amino]propyl]phenyl]azanide]: the EC50 stood at 1.28 µM.

For `CC(C)(C)[C@H]1CCc2nc3sc(C(=O)N[C@H](CCN4CCCC5(CCNC5=O)C4)c4cccc(NS(C)(=O)=O)c4)cc3cc2C1` (mixture of isomers) [Example 19, ammonium; methylsulfonyl-[3-[rac-(1R)-3-(1-oxo-2,9-diazaspiro[4.5]decan-9-y1)-1-[[rac-(6S)-6-tert-butyl-5,6,7,8-tetrahydrothieno[2,3-b]quinoline-2-carbonyl]amino]propyl]phenyl]azanide], the EC50 was found to be 1.58 µM.

In turn, `CC(C)(C)[C@H]1CCc2nc3sc(C(=O)N[C@H](CCN4CCC4)c4cccc(NS(C)(=O)=O)c4)cc3cc2C1` (racemic) [Example 20, ammonium; methylsulfonyl-[3-[rac-(1R)-3-(azetidin-1-yl)-1-[[rac-(6S)-6-tert-butyl-5,6,7,8-tetrahydrothieno[2,3-b]quinoline-2-carbonyl]amino]propyl]phenyl]azanide] yielded an EC50 of 1.65 µM.

For the compound `CC(C)(C)[C@H]1CCc2nc3sc(C(=O)N[C@H](CCNC4COC4)c4cccc(NS(C)(=O)=O)c4)cc3cc2C1` (racemic) [Example 21, ammonium; methylsulfonyl-[3-[rac-(1R)-3-(oxetan-3-ylamino)-1-[[rac-(6S)-6-tert-butyl-5,6,7,8-tetrahydrothieno[2,3-b]quinoline-2-carbonyl]amino]propyl]phenyl]azanide], the EC50 turned out to be 1.77 µM.
